Test results as given in PMC10433800, “Dissecting the Arginine and Lysine Biosynthetic Pathways and Their Relationship in Haloarchaeon Natrinema gari J7-2 via Endogenous CRISPR-Cas System-Based Genome Editing” (Microbiology Spectrum, 2023).

Molecular target: T1, NgArgX (Natrinema gari, UniProt L9YZH8)
T1 construct: gene C486_12678; ArgX with His tag (C-terminal in complementation plasmids), expressed in and partially purified from the J7-2 delta-argWX strain; carrier ArgW with N-terminal His tag purified from E. coli BL21(DE3); with Alpha-aminoadipate/glutamate carrier protein LysW/ArgW
T1 sequence (L9YZH8 1-291): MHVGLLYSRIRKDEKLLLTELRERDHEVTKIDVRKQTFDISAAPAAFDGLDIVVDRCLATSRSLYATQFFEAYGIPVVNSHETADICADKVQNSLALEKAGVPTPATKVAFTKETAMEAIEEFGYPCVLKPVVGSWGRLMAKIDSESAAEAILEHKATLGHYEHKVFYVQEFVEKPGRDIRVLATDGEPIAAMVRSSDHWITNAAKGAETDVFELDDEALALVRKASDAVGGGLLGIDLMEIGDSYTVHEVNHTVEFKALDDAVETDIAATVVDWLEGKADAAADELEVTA
Assay: LC-MS/MS of trypsin-digested NgArgW-glutamate product
Format: biochemical
Conditions: 10 mM glutamate, 20 mM ATP, 1 mM MgCl2, 0.1 mM ZnSO4, 3 M KCl, 100 mM HEPES pH 7.5, 45 °C, 12 h; glutamate ligated to Glu54 of NgArgW; enzyme partially purified

For `N[C@@H](CCC(=O)O)C(=O)O` [glutamate], the “LC-MS/MS of trypsin-digested NgArgW-glutamate product” value was “both NgArgX and NgArgXa specifically act on glutamate rather than AAA”.
